The numbers were not newly measured in US7521425B2, “Anti-angiogenic compounds” (Covx Technologies Ireland Limited, priority 2005, dated 2009), which cites them from elsewhere.

One data set deals with m38C2. The conditions noted are these: against immobilized BSA-conjugated β-diketone 1, read-out: apparent equilibrium dissociation constant.
A further data set addresses h38C2. To be noted: against immobilized BSA-conjugated β-diketone 1, read-out: apparent equilibrium dissociation constant.

pKd: −log10 of the molar value.

Turning to `CC(=O)CC(C)=O` [β-diketone 2], the pKd at m38C2 is 4.42; on h38C2, 5.12.
For the compound `CC(=O)CC(=O)CCc1ccccc1` [β-diketone 3], the pKd at m38C2 is 6.37; on h38C2, 6.00.
